From ChEMBL document CHEMBL5625244, “Synthesis of cannabidiol-based compounds as ACE2 inhibitors with potential application in the treatment of COVID-19” (Eur J Med Chem, 2023)
Calls of active or inactive are those of the source. The rule behind the calls is not given here.

Assays:
[1] = Cytotoxicity against African green monkey Vero cells assessed as reduction in cell viability upto 100 uM incubated for 48 hrs by Alamar blue assay; assay type: toxicity, cell-based; details: chlorocebus sabaeus
[2] = biological target: T1, Angiotensin-converting enzyme 2 (Homo sapiens, UniProt Q9BYF1); assay: Inhibition of human ACE2 using Mca-APK(Dnp) as substrate incubated for 30 mins by fluorometer analysis
Target sequence in this assay (Q9BYF1 whole entry): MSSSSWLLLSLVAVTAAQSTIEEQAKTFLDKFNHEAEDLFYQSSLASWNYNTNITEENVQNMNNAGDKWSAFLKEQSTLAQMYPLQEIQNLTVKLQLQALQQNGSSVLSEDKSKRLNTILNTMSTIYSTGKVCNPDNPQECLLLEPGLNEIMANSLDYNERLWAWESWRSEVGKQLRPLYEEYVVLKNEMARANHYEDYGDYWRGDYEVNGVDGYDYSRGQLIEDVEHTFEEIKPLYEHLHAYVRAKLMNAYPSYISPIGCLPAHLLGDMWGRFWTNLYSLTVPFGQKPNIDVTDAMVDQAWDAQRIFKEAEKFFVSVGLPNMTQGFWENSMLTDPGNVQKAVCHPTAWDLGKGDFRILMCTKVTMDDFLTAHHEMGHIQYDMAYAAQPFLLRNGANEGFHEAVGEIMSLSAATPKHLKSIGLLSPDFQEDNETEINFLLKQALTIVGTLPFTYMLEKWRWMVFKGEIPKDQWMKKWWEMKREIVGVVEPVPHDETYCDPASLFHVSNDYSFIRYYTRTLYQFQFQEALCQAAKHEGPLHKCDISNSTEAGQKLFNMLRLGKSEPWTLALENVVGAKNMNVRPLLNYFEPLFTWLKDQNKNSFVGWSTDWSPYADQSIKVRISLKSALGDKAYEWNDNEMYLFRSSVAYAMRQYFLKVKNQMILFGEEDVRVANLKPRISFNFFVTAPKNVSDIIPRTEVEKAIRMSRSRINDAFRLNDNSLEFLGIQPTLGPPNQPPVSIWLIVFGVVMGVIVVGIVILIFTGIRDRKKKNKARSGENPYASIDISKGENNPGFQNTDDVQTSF

SARS-CoV-2 = assay: Antiviral activity against SARS-CoV-2 Wuhan infected in african green monkey Vero cells pre-infected for 1 hr followed by compound addition and measured after 48 hrs by RT-qPCR analysis; assay type: functional, organism-based; details: Severe acute respiratory syndrome coronavirus 2, Wuhan
[3] = biological target: T1, Angiotensin-converting enzyme 2; assay: Inhibition of human ACE2 using Mca-APK(Dnp) as substrate at 10 nM incubated for 30 mins by fluorometer analysis
Target sequence in this assay (Q9BYF1 18-805 limits assumed): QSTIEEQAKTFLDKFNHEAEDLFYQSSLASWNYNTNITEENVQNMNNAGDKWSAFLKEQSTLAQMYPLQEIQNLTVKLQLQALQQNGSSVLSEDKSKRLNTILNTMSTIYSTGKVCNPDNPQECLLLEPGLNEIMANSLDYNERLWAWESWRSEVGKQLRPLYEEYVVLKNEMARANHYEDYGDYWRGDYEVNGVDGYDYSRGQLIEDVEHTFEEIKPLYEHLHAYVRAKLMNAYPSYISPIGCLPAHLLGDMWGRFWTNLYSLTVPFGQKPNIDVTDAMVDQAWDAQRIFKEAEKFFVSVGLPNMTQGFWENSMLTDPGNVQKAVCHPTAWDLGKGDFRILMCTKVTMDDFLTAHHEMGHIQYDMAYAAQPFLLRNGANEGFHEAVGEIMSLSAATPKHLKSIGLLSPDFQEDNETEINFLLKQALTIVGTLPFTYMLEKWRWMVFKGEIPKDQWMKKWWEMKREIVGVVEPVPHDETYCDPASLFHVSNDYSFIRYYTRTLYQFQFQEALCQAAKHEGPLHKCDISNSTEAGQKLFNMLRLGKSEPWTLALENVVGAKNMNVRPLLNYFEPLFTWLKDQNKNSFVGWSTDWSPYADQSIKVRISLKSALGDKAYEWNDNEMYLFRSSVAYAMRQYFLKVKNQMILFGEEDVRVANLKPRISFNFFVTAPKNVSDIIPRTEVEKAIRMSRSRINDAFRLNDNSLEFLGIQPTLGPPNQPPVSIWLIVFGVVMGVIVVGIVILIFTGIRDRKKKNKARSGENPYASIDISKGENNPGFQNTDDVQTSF

Compound | Activity [1] | IC50 [2] [µM] | IC50 (SARS-CoV-2) [µM] | inhibition [3]
C=C(C)[C@@H]1CCC(C)=C[C@H]1c1c(O)cc(CCCCC)cc1O [CANNABIDIOL] | Non-Toxic | > 30 | 72.8 | 
C=C(C)[C@@H]1CC=C(C)C(c2c(O)cc(CCCCC)cc2O)C1 (stereo partly specified) | Non-Toxic |  | 6.3 | 
CCCCCc1cc(O)cc2c1C1CC(C)(C)CC(C)(C1)O2 (stereo unspecified) |  | 0.01 |  | Active
C=C(C)[C@@H]1CCC(C)=C[C@H]1c1c(OCC(=O)OCC)cc(CCCCC)cc1OCC(=O)OCC |  | 0.37 |  | 
CCCCCc1cc(O)c(C2C=C(C)CC(C)(C)C2)c(O)c1 (stereo unspecified) |  | 3.96 |  | 
CC(=O)NCC(=O)N[C@@H](CC(=O)O)C(=O)N[C@@H](Cc1ccc(O)cc1)C(=O)N[C@@H](CO)C(=O)N[C@@H](Cc1cnc[nH]1)C(=O)N[C@H]1CSSC[C@@H](C(=O)N[C@H](C(=O)N[C@@H](Cc2ccc(O)cc2)C(=O)N2CCC[C@H]2C(=O)N[C@@H](CC(=O)O)C(=O)N2CCC[C@H]2C(=O)N[C@@H](CCC(=O)O)C(=O)NCC(=O)NCC(=O)NCC(N)=O)[C@@H](C)O)NC(=O)[C@H](CCCCN)NC(=O)[C@H](Cc2c[nH]c3ccccc23)NC(=O)[C@H](Cc2c[nH]c3ccccc23)NC(=O)[C@@H]2CCCN2C(=O)[C@H](Cc2ccc(O)cc2)NC(=O)[C@H](Cc2ccc(O)cc2)NC(=O)[C@H](CCCNC(=N)N)NC(=O)[C@H](CC(C)C)NC(=O)[C@@H]2CCCN2C(=O)[C@H](CO)NC1=O |  | 8.3 |  | 
CCCCCc1cc(OC(C)=O)c([C@@H]2C=C(C)CC[C@H]2[C@@H](C)CC=O)c(OC(C)=O)c1 |  | 0.04 |  | 
C=C(C)[C@@H]1CCC(C)=C[C@H]1c1c(OCCCC)cc(CCCCC)cc1OCCCC |  | 0.17 |  | 
CCCCCc1cc(O)c([C@@H]2C=C(C)CC[C@H]2[C@@H](C)CCN2CCC(C)CC2)c(O)c1 | Non-Toxic | > 30 | 6.5 | 
C=C(C)[C@@H]1CCC(C)=C[C@H]1c1c(OCC)cc(CCCCC)cc1OCC | Non-Toxic | 0.18 | 9.4 | 
CCCCCc1cc(O)c([C@@H]2C=C(C)CC[C@H]2C(C)C)c(O)c1 | Non-Toxic | 1.37 | 1.9 | 
